According to US6352988B2, “Indane or dihydroindole derivatives” (H. Lundbeck A/S, priority 1996, dated 2002):
Structures can show the parent of a compound that is named as a salt.

Tests used:
[1] = biological target: T1, dopamine D4 receptors in cloned human dopamine receptor subtype 4.2 membranes (Homo sapiens, UniProt P21917, DEL271-302); test: 3H-YM-09151-2 binding (affinity for dopamine D4 receptors); conditions: 3H-YM-09151-2, cloned human D4.2 membranes; for IC50: * means that the test result is preliminary, read-out: D4-bind. IC50
T1 sequence (P21917 with tags, fused parts or gaps DEL271-302): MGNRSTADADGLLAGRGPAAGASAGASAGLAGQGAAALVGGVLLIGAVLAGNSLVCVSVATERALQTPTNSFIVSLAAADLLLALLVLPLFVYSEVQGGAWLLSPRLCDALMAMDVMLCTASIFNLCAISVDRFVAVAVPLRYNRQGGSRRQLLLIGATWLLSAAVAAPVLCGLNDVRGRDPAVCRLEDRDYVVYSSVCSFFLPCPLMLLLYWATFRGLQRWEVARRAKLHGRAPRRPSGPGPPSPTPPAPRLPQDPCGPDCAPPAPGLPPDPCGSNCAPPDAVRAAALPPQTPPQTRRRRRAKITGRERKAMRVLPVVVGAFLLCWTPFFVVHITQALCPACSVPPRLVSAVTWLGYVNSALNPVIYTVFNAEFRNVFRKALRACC
Description: By this method the inhibition by drugs of the binding of the dopamine D4 antagonist ^3H-YM-09151-2 to dopamine D4 receptors in cloned human dopamine receptor subtype 4.2 membranes is determined in vitro. Accordingly, this is a test for affinity for dopamine D4 receptors. The test is performed using a preparation of cloned dopamine D4 cell membranes CRM-016®, Dupharma A/S, Denmark, in accordance with the product specifications.

| SMILES | melting point [°C] | IC50 [1] [nM] | inhibition at 0.05 µM ([1]; at 50 nM, read-out: D4-bind. % inhibition of binding at 50 nM) [%] |
| --- | --- | --- | --- |
| CC(=O)N1CC(CCCN2CC=C(c3c[nH]c4cc(Cl)ccc34)CC2)c2ccccc21 (centres unmarked) (as salt: oxalate) [Compound 20k, 3-[1-[3-(1-Acetyl-2,3-dihydro-1H-indol-3-yl)propyl]-1,2,3,6-tetrahydropyridin-4-yl]-6-chloro-1H-indole] | 112 to 115 | – | – |
| Clc1cccc2c(C3CCN(CC4Cc5ccccc5C4)CC3)c[nH]c12 (as salt: oxalate) [Compound 21c, 7-Chloro-3-[1-(indan-2-ylmethyl)piperidin-4-yl]-1H-indole] | 218 to 219 | – | – |
| C1=C(n2ccc3ccccc32)CCN(CCC2Cc3ccccc3C2)C1 (as salt: oxalate) [Compound 28b, 1-[1-[2-(Indan-2-yl)ethyl]-1,2,3,6-tetrahydropyridin-4-yl]-1H-indole] | 176 to 178 | – | – |
| CC(=O)N1CC(CCN2CC=C(c3c[nH]c4cc(Cl)ccc34)CC2)c2ccccc21 (single isomer, unassigned; (-)) [Compound 34b] | 168 to 169 | 24 | – |
| CC(=O)Nc1cccc2c1CCC2CN1CC=C(c2c[nH]c3cc(Cl)ccc23)CC1 (centres unmarked) [Compound 6c] | 189 to 190 | 12 | – |
| Clc1ccc2c(C3=CCN(CCC4CCc5ccccc54)CC3)c[nH]c2c1 (centres unmarked) [Compound 8a, 6-Chloro-3-[1-[2-(indan-1-yl)ethyl]-1,2,3,6-tetrahydropyridine-4-yl]-1H-indole] | 181 to 183 | 3.5 | – |
| Fc1ccc2[nH]cc(C3=CCN(CCC4CCc5ccccc54)CC3)c2c1 (centres unmarked) [Compound 8b, 5-Fluoro-3-[1-[2-(indan-1-yl)ethyl]-1,2,3,6-tetrahydropyridin-4-yl]-1H-indole] | 172 to 176 | 2.8 | – |
| Fc1ccc2[nH]cc(C3=CCN(CCCCC4CCc5ccccc54)CC3)c2c1 (centres unmarked) [Compound 8d, 5-Fluoro-3-[1-[4-(indan-1-yl)butan-1-yl]-1,2,3,6-tetrahydropyridin-4-yl]-1H-indole] | 172 to 176 | 20 | – |
| C1=C(c2c[nH]c3ccccc23)CCN(CC2Cc3ccccc3C2)C1 [Compound 11b, 3-[1-(Indan-2-yl)methyl-1,2,3,6-tetrahydropyridin-4-yl]-1H-indole] | 156 to 157 | 3 | – |
| Clc1ccc2c(C3=CCN(CC4Cc5ccccc5C4)CC3)c[nH]c2c1Cl [Compound 11d, 6,7-Dichloro-3-[1-(indan-2-yl)methyl-1,2,3,6-tetrahydropyridin-4-yl]-1H-indole] | 151 to 152 | 27 | – |
| C1=C(c2c[nH]c3cc4c(cc23)OCO4)CCN(CC2Cc3ccccc3C2)C1 [Compound 11e, 3-[1-(Indan-2-yl)methyl-1,2,3,6-tetrahydropyridin-4-yl]-5,6-methylenedioxy-1H-indole] | 192 to 193 | 16 | – |
| Clc1ccc2c(C3=CCN(CCC4Cc5ccccc5C4)CC3)c[nH]c2c1 [Compound 11g, 6-Chloro-3-[1-[2-(indan-2-yl)ethyl]-1,2,3,6-tetrahydropyridin-4-yl]-1H-indole] | 217 to 218 | 12 | – |
| Clc1ccc2c(C3=CCN(CCCC4Cc5ccccc5C4)CC3)c[nH]c2c1 [Compound 11h, 6-Chloro-3-[1-[3-(indan-2-yl)propan-1-yl]-1,2,3,6-tetrahydropyridin-4-yl]-1H-indole] | 176 to 177 | 24 | – |
| Clc1ccc2c(C3=CCN(CCCCC4Cc5ccccc5C4)CC3)c[nH]c2c1 [Compound 11i, 6-Chloro-3-[1-[4-(indan-2-yl)butan-1-yl]-1,2,3,6-tetrahydropyridin-4-yl]-1H-indole] | 211 to 214 | – | 37 |
| c1ccc2c(c1)CC(CN1CCC(c3c[nH]c4ccccc34)CC1)C2 [Compound 21b, 3-[1-(indan-2-ylmethyl)piperidin-4-yl]-1H-indole] | 146 to 147 | 2.1 | – |
| Clc1ccc2c(C3CCN(CC4Cc5ccccc5C4)CC3)c[nH]c2c1Cl [Compound 21d, 6,7-Dichloro-3-[1-(indan-2-ylmethyl)piperidin-4-yl]-1H-indole] | 141 to 142 | 3.9 | – |
| c1ccc2c(c1)CC(CN1CCC(c3c[nH]c4cc5c(cc34)OCO5)CC1)C2 [Compound 21e, 3-[1-(Indan-2-ylmethyl)piperidin-4-yl]-5,6-methylenedioxy-1H-indole] | 187 to 188 | 23 | – |
| Clc1ccc2c(C3CCN(CCC4Cc5ccccc5C4)CC3)c[nH]c2c1 [Compound 21f, 6-Chloro-3-[1-[2-(indan-2-yl)ethyl]piperidin-4-yl]-1H-indole] | 155 to 156 | 3.2 | – |
| Clc1ccc2c(C3CCN(CCCC4Cc5ccccc5C4)CC3)c[nH]c2c1 [Compound 21g, 6Chloro-3-[1-[3-(indan-2-yl)propan-1-yl]piperidin-4-yl]-1H-indole] | 134 to 135 | 7.2 | – |
| Clc1ccc2c(C3CCN(CCCCC4Cc5ccccc5C4)CC3)c[nH]c2c1 [Compound 21h, 6-Chloro-3-[1-[4-(indan-2-yl)butan-1-yl]piperidin-4-yl]-1H-indole] | 139 to 140 | 14 | – |
| C1=C(c2cc3ccccc3[nH]2)CCN(CCC2Cc3ccccc3C2)C1 [Compound 28c, 2-[1-[2-(Indan-2-yl)ethyl]-1,2,3,6-tetrahydropyridin-4-yl]-1H-indole] | 175 to 176 | 13 | – |
| c1ccc2c(c1)CC(CCN1CCC(n3ccc4ccccc43)CC1)C2 [Compound 29b, 1-[1-[2-(Indan-2-yl)ethyl]piperidin-4-yl]-1H-indole] | 80 to 81 | 2.2 | – |
